Source: patent US7718688B2, “Nitrobenzindoles and their use in cancer therapy” (Auckland Uniservices Limited, priority 2004, dated 2010)

Assays:
[1] = system: SKOV3: human ovarian carcinoma cell line; assay: Proliferation IC50 assay, oxic/hypoxic, SKOV3; assay type: cell-based; conditions: Table 3; for IC50: Homo sapiens, SK-OV-3, 4 h exposure under aerobic conditions; for HCR (hypoxic cytotoxicity ratio) SKOV3: IC50(aerobic)/IC10(hypoxic)
[2] = system: HT29: human colon cancer cell line; assay: Proliferation IC50 assay, oxic/hypoxic, HT29; assay type: cell-based; conditions: for IC50: Homo sapiens, HT-29, 4 h exposure under aerobic conditions; for IC50 / HCR (hypoxic cytotoxicity ratio) HT29: Table 3; for HCR (hypoxic cytotoxicity ratio) HT29: IC50(aerobic)/IC10(hypoxic)
HT29 clonogens = assay: Clonogenic assay (C10), oxic/hypoxic, HT29; assay type: cell-based, human; conditions: for Clonogenic HCR HT29: C10(aerobic)/C10(hypoxic); for Clonogenic C10 HT29 Oxic: concentration to reduce HT29 clonogens to 10% of controls, 4 hr exposure under aerobic conditions
[3] = One-electron reduction potential E(1) by pulse radiolysis; assay type: physicochemical; conditions: determined by pulse radiolysis
[4] = Hypoxic metabolism with HT29 tumour S9 (HPLC); conditions: for k: rate of formation of compound of Formula II: 10 μM with tumour S9 (12 mg/mL protein), 37° C., pH 7.4, NADPH 1 mM, 2 h, products R3, 56, 55, 60
Excerpt: Metabolism of compounds of Formula I was investigated using S9 preparations from HT29 tumours grown as xenografts in CD-1 mice.

[5] = Plasma pharmacokinetics after intravenous 36 in mice (LC/MS/MS); assay type: in vivo, CD-1 mice (nu/+ heterozygotes); conditions: CD-1 (nu/+ heterozygotes), mouse
Protocol: The compounds were assayed in plasma, following precipitation of proteins with methanol, using an LC/MS/MS (triple quadrupole mass spectrometer).

| SMILES | IC50 [1] | HCR (hypoxic cytotoxicity ratio) SKOV3 [1] | IC50 [2] | HCR (hypoxic cytotoxicity ratio) HT29 [2] | Clonogenic HCR HT29 (HT29 clonogens) | Clonogenic C10 HT29 Oxic (HT29 clonogens) | melting point | E(1): one-electron reduction potential [3] | k: rate of formation of compound of Formula II ([4]; hypoxic) | HCR: Hypoxic cytotoxicity ratio for HT29 cell line ([2]; Table 5, as defined in Table 3) | formation of 60 under hypoxic conditions ([4]; 26 at 10 μM with S9, 2 h, hypoxic, HPLC) | formation of 60 under oxic conditions ([4]; 26 at 10 μM with S9, 2 h, oxic, HPLC) | AUC for 90% kill of HT29 cells under hypoxic conditions (HT29 clonogens; estimated from the clonogenic assay data in Table 3) | AUC ([5]; intravenous, 42.1 μmol/kg, 35 derived from 36, plasma, mice) | AUC ([5]; iv, 42.1 umol/kg, plasma, CD-1 mice, 36 i.v. 42.1 μmol/kg, 35 as metabolite of 36, mean) | clearance ([5]; iv, 42.1 umol/kg, plasma, CD-1 mice, 36 i.v. 42.1 μmol/kg, 35 as metabolite of 36, mean, read-out: Cl (clearance)) | half-life ([5]; iv, 42.1 umol/kg, plasma, CD-1 mice, 36 i.v. 42.1 μmol/kg, 35 as metabolite of 36, mean, read-out: T1/2 (terminal half-life)) | Vd ([5]; iv, 42.1 umol/kg, plasma, CD-1 mice, 36 i.v. 42.1 μmol/kg, 35 as metabolite of 36, mean, read-out: Vd (volume of distribution based on the terminal phase)) |
| --- | --- | --- | --- | --- | --- | --- | --- | --- | --- | --- | --- | --- | --- | --- | --- | --- | --- | --- |
| COc1cc2cc(C(=O)N3CC(CCl)c4c3cc([N+](=O)[O-])c3cc(C(C)=O)ccc43)[nH]c2c(OC)c1OC (stereo not shown) [Compound 11, 7-Acetyl-1-(chloromethyl)-5-nitro-3-(5,6,7-trimethoxyindol-2-carbonyl)-1,2-dihydro-3H-benzo[e]indole] | 5.1 µM | 19 | 4.1 µM | 5.2 | >13.5 | >25 µM | 257 to 260 °C |  |  |  |  |  |  |  |  |  |  |  |
| CN(C)CCOc1ccc2[nH]c(C(=O)N3CC(CCl)c4c3cc([N+](=O)[O-])c3cc(C(N)=O)ccc43)cc2c1 (stereo not shown) [Compound 16, 1-(Chloromethyl)-3-{5-[2-(dimethylamino)ethoxy]indol-2-carbonyl}-5-nitro-1,2-dihydro-3H-benzo[e]indole-7-carboxamide] | 3.9 µM |  | 4.1 µM |  | >14 | >25 µM |  | −422 ± 10 mV | 1.48 µM/h |  |  |  |  |  |  |  |  |  |
| CN(C)CCOc1ccc2[nH]c(C(=O)N3CC(CCl)c4c3cc([N+](=O)[O-])c3cc(C#N)ccc43)cc2c1 (stereo not shown) [Compound 22, 1-(Chloromethyl)-3-{5-[2-(dimethylamino)ethoxy]indol-2-carbonyl}-5-nitro-1,2-dihydro-3H-benzo[e]indole-7-carbonitrile] | 0.81 µM |  | 0.7 µM |  |  |  |  | −385 ± 8 mV | 1.27 µM/h |  |  |  |  |  |  |  |  |  |
| CN(C)CCOc1ccc2[nH]c(C(=O)N3CC(CCl)c4c3cc([N+](=O)[O-])c3cc(S(N)(=O)=O)ccc43)cc2c1 (stereo not shown) [Compound 26, 1-(Chloromethyl)-3-{5-[2-(dimethylamino)ethoxy]indol-2-carbonyl}-5-nitro-1,2-dihydro-3H-benzo[e]indole-7-sulfonamide] | 6.9 µM | 280 | 4.6 µM | 330 | >30.9 | >42 µM |  | −390 ± 9 mV |  | 330 | major product of hypoxic metabolism | not detected |  |  |  |  |  |  |
| CN(C)CCOc1ccc2[nH]c(C(=O)N3CC(CCl)c4c3cc([N+](=O)[O-])c3cc(S(=O)(=O)NCCO)ccc43)cc2c1 (stereo not shown) [Compound 35, 1-(Chloromethyl)-3-{5-[2-(dimethylamino)ethoxy]indol-2-carbonyl}-N-(2-hydroxyethyl)-5-nitro-1,2-dihydro-3H-benzo[e]indole-7-sulfonamide] | 9.2 µM | 250 | 5.5 µM | 90 | 74.4 | 115 µM | 205 to 210 °C | −392 ± 7 mV |  |  |  |  | 371 µM·min | ~11.7 µM·h | 11.7 µM·h | 61 mL/min/kg | 43 min | 3.8 L/kg |
| CN(C)CCNS(=O)(=O)c1ccc2c3c(cc([N+](=O)[O-])c2c1)N(C(=O)c1cc2cc(OCCN(C)C)ccc2[nH]1)CC3CCl (stereo not shown) [Compound 39, 1-(Chloromethyl)-3-{5-[2-(dimethylamino)ethoxy]indol-2-carbonyl}-N-[2-(dimethylamino)ethyl]-5-nitro-1,2-dihydro-3H-benzo[e]indole-7-sulfonamide] | 0.83 µM | 130 | 0.73 µM | 110 | 55 | 6.2 µM |  | −357 ± 8 mV |  |  |  |  |  |  |  |  |  |  |
| CN(C)CCOc1ccc2[nH]c(C(=O)N3CC(CCl)c4c3cc([N+](=O)[O-])c3ccc(C(N)=O)cc43)cc2c1 (stereo not shown) [Compound 43, 1-(Chloromethyl)-3-{5-[2-(dimethylamino)ethoxy]indol-2-carbonyl}-5-nitro-1,2-dihydro-3H-benzo[e]indole-8-carboxamide] | 3.4 µM | 34 | 2.8 µM | 22 | 21.2 | 33 µM |  | −447 ± 9 mV |  |  |  |  |  |  |  |  |  |  |
| CN(C)CCOc1ccc2[nH]c(C(=O)N3CC(CCl)c4c3cc([N+](=O)[O-])c3ccccc43)cc2c1 (stereo not shown) [Compound R2, reference compound] | 1.4 µM |  | 0.47 µM |  | 2 | 4.8 µM |  | −512 ± 8 mV | 0.49 µM/h |  |  |  |  |  |  |  |  |  |
